From patent US20230017045A1, “PYRIDINE AND PYRIMIDINE CARBOXYLATE HERBICIDES AND METHODS OF USE THEREOF” (Dow AgroSciences LLC, priority 2017, published 2023)
Read-outs that look alike come from different tables or passages of the source.

System: test plant species
Experiment: Post-emergent herbicidal activity test (greenhouse, foliar spray, visual growth reduction)
Format: in vivo
Settings: post-emergence, 336 h, 140 g ai/ha
Summary of the method: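 Seedlings were raised 7-21 d in a greenhouse under a 15 h photoperiod until the first or second true leaf. Each compound, dissolved in acetone:DMSO 97:3 and diluted into a surfactant-containing spray mixture, was then applied at 187 L/ha. Plants were subirrigated, and growth reduction was scored visually at 14 d.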

[1] = ECHCG: barnyardgrass (Echinochloa crus-galli), 14 days after application, read-out: Visual Growth Reduction (%) 14 Days After Application, ECHCG
[2] = IPOHE: ivy-leaf morning glory (Ipomoea hederacea), 14 days after application, read-out: Visual Growth Reduction (%) 14 Days After Application, IPOHE
[3] = KCHSC: kochia (Bassia scoparia), 14 days after application, read-out: Visual Growth Reduction (%) 14 Days After Application, KCHSC
[4] = ORYSA: rice (Oryza sativa), 14 days after application, read-out: Visual Growth Reduction (%) 14 Days After Application, ORYSA
[5] = SETFA: giant foxtail (Setaria faberi), 14 days after application, read-out: Visual Growth Reduction (%) 14 Days After Application, SETFA
[6] = SORVU: grain sorghum (Sorghum vulgare), 14 days after application, read-out: Visual Growth Reduction (%) 14 Days After Application, SORVU
[7] = STEME: common chickweed (Stellaria media), 14 days after application, read-out: Visual Growth Reduction (%) 14 Days After Application, STEME
[8] = TRZAS: wheat, spring (Triticum aestivum), 14 days after application, read-out: Visual Growth Reduction (%) 14 Days After Application, TRZAS
[9] = blackgrass (Alopecurus myosuroides), 14 Days After Application, read-out: Visual Growth Reduction (%) ALOMY
[10] = canada thistle (Cirsium arvense), 14 Days After Application, read-out: Visual Growth Reduction (%) CIRAR
[11] = crabgrass (Digitaria sanguinalis), 14 Days After Application, read-out: Visual Growth Reduction (%) DIGSA
[12] = lambsquarters (Chenopodium album), 14 Days After Application, read-out: Visual Growth Reduction (%) CHEAL
[13] = redroot pigweed (Amaranthus retroflexus), 14 Days After Application, read-out: Visual Growth Reduction (%) AMARE
[14] = wild oat (Avena fatua), 14 Days After Application, read-out: Visual Growth Reduction (%) AVEFA
[15] = yellow nutsedge (Cyperus esculentus), 14 Days After Application, read-out: Visual Growth Reduction (%) CYPES
[16] = ALOMY: blackgrass (Alopecurus myosuroides), 14 days after application, read-out: Visual Growth Reduction (%) 14 Days After Application, ALOMY
[17] = AMARE: redroot pigweed (Amaranthus retroflexus), 14 days after application, read-out: Visual Growth Reduction (%) 14 Days After Application, AMARE
[18] = AVEFA: wild oat (Avena fatua), 14 days after application, read-out: Visual Growth Reduction (%) 14 Days After Application, AVEFA
[19] = CHEAL: lambsquarters (Chenopodium album), 14 days after application, read-out: Visual Growth Reduction (%) 14 Days After Application, CHEAL
[20] = CIRAR: canada thistle (Cirsium arvense), 14 days after application, read-out: Visual Growth Reduction (%) 14 Days After Application, CIRAR
[21] = DIGSA: crabgrass (Digitaria sanguinalis), 14 days after application, read-out: Visual Growth Reduction (%) 14 Days After Application, DIGSA

SMILES | pest or weed control at 140 g/ha [1] [%] | pest or weed control at 140 g/ha [2] [%] | pest or weed control at 140 g/ha [3] [%] | pest or weed control at 140 g/ha [4] [%] | pest or weed control at 140 g/ha [5] [%] | pest or weed control at 140 g/ha [6] [%] | pest or weed control at 140 g/ha [7] [%] | pest or weed control at 140 g/ha [8] [%] | pest or weed control at 140 g/ha [9] [%] | pest or weed control at 140 g/ha [10] [%] | pest or weed control at 140 g/ha [11] [%] | pest or weed control at 140 g/ha [12] [%] | pest or weed control at 140 g/ha [13] [%] | pest or weed control at 140 g/ha [14] [%] | pest or weed control at 140 g/ha [15] [%] | pest or weed control at 140 g/ha [16] [%] | pest or weed control at 140 g/ha [17] [%] | pest or weed control at 140 g/ha [18] [%] | pest or weed control at 140 g/ha [19] [%] | pest or weed control at 140 g/ha [20] [%] | also measured
C=Cc1cc(C(F)(F)F)cc(Cl)c1-c1ccc(Cl)c(C(=O)O)n1 [F222, 3-Chloro-6-(2-chloro-4-(trifluoromethyl)-6-vinylphenyl) picolinic acid] | 60 to 74 | 95 to 100 | 45 to 59 | 0 to 29 | 30 to 44 | 75 to 84 | 0 to 29 | 45 to 59 | 0 to 29 | 85 to 94 | 75 to 84 | 75 to 84 | 75 to 84 | 0 to 29 | 0 to 29 |  |  |  |  |  | 
COC(=O)c1nc(-c2ccc(O)cc2F)c(F)cc1Cl [F345, Methyl 3-chloro-5-fluoro-6-(2-fluoro-4-hydroxyphenyl) picolinate] | 0 to 29 | 0 to 29 | 0 to 29 | 0 to 29 | 0 to 29 | 0 to 29 | 0 to 29 | 0 to 29 | 0 to 29 | 0 to 29 | 0 to 29 | 0 to 29 | 0 to 29 | 0 to 29 | 0 to 29 |  |  |  |  |  | 
CO/N=C/c1c(C(F)(F)F)ccc(-c2ccc(Cl)c(C(=O)OC)n2)c1Cl [F141, Methyl (E)-3-chloro-6-(2-chloro-3-((methoxyimino)methyl)-4-(trifluoromethyl)phenyl)picolinate] | 0 to 29 | 0 to 29 | 60 to 74 | 0 to 29 | 0 to 29 | 0 to 29 | 0 to 29 | 0 to 29 |  |  |  |  |  |  |  | 0 to 29 | 75 to 84 | 0 to 29 | 0 to 29 | 0 to 29 | pest or weed control at 140 g/ha (CYPES: yellow nutsedge (Cyperus esculentus), 14 days after application, read-out: Visual Growth Reduction (%) 14 Days After Application, CYPES): 0 to 29%; pest or weed control at 140 g/ha [21]: 60 to 74%
COC(=O)c1nc(-c2cccc(Cl)c2F)ccc1Cl [F277, Methyl 3-chloro-6-(3-chloro-2-fluorophenyl) picolinate] | 0 to 29 | 0 to 29 | 0 to 29 | 0 to 29 | 0 to 29 | 0 to 29 | 0 to 29 | 0 to 29 | 0 to 29 | 0 to 29 | 0 to 29 | 0 to 29 | 0 to 29 | 0 to 29 | 0 to 29 |  |  |  |  |  | 
O=C(O)c1nc(-c2cc3c(cc2Cl)OCO3)ccc1Cl [F148, 3-Chloro-6-(6-chlorobenzo[d][1,3]dioxol-5-yl)picolinic acid] | 0 to 29 | 30 to 44 | 0 to 29 | 0 to 29 | 0 to 29 | 0 to 29 | 0 to 29 | 0 to 29 |  |  |  |  |  |  |  | 0 to 29 | 75 to 84 | 0 to 29 | 75 to 84 | 0 to 29 | pest or weed control at 140 g/ha [21]: 0 to 29%
